{"source": "patent US7135502B1", "about": "“Colchinol derivatives as vascular damaging agents” (priority 1999, dated 2006)", "key": {"CaNT tumour vasculature": {"tested_on": "CaNT tumour vasculature", "experiment": "Activity against tumour vasculature measured by fluorescent dye (Hoechst 33342), tumour functional vascular volume", "assay_type": "in vivo", "conditions": "fluorescent dye method, CaNT tumour-bearing mice, dye 24 hours after drug treatment; for % Decrease in vascular volume: intraperitoneal, dose not given", "description": "(b) Activity Against Tumour Vasculature Measured by Fluorescent Dye\nTumour functional vascular volume of CaNT tumour-bearing mice was measured using the fluorescent dye Hoechst 33342 according to the method of Smith et al (Brit. Jnl. Cancer 1988, 57, 247–253). Five animals were used in control and treated group. The fluorescent dye was dissolved in saline at 6.25 mg/ml and injected intravenously at 10 mg/kg 24 hours after intraperitoneal drug treatment. One minute later, animals were killed and tumours excised and frozen; 10 μm sections were cut at 3 different levels and observed under UV illumination using an Olympus microscope equipped with epifluorescence. Blood vessels were identified by their fluorescent outlines and vascular volume was quantified using a point scoring system based on that described by Chalkley, (Jnl. Natl. Cancer Inst., 1943, 4, 47–53). All estimates were based on counting a minimum of 100 fields from sections cut at the 3 different levels."}, "tubulin": {"tested_on": "tubulin", "experiment": "Tubulin polymerisation assay", "assay_type": "biochemical", "conditions": "method of O. Boye et al Med. Chem. Res., 1991, 1, 142-150", "source_text": "The ability of the compounds to bind to preparations of mammalian tubulin can be evaluated by a number of methods available in the literature, for example by following temperature initiated tubulin polymerisation by turbidity in the absence and presence of the compound (for example O. Boye et al Med. Chem. Res., 1991, 1, 142–150)."}, "vasculature": {"tested_on": "vasculature", "conditions": "at maximum tolerated dose; Lancet, 1994, 344, 1267-1271; cited from earlier work"}}, "data": [{"smiles": "COc1cc2c(c(OC)c1OC)-c1ccc(OC(=O)N3CCC(N4CCCCC4)CC3)cc1C(NC(C)=O)CC2", "note": "(centres unmarked) [Example 3, N-[3-(4-(1-piperidinyl)piperidinylcarbonyloxy)-9,10,11-trimethoxy-6,7-dihydro-5H-dibenzo[a,c]cyclohepten-5-yl]acetamide]", "values": [{"measurement": "% Decrease in vascular volume", "setting": "CaNT tumour vasculature", "result": 45, "unit": "%"}]}, {"smiles": "COc1cc2c(c(OC)c1OC)-c1ccc(N)cc1C(NC(C)=O)CC2", "note": "(centres unmarked) [N-[3-amino-9,10,11-trimethoxy-6,7-dihydro-5H-dibenzo[a,c]cyclohepten-5-yl]acetamide]", "values": [{"measurement": "decrease in perfused vascular volume relative to control", "setting": "CaNT tumour vasculature; 50 mg/kg intraperitoneally", "result": 88, "unit": "%"}, {"measurement": "IC50", "setting": "tubulin", "result": 58, "unit": "µM"}]}, {"smiles": "COc1cc2c(c(OC)c1OC)-c1ccc(NC(=O)[C@H](C)N)cc1C(NC(C)=O)CC2", "note": "(some centres unmarked) [Example 2, N-[3-(alanylamino)-9,10,11-trimethoxy-6,7-dihydro-5H-dibenzo[a,c]cyclohepten-5-yl]acetamide]", "values": [{"measurement": "% Decrease in vascular volume", "setting": "CaNT tumour vasculature", "result": 95, "unit": "%"}]}, {"smiles": "CC(=O)O[C@@]12CO[C@@H]1C[C@H](O)[C@@]1(C)C(=O)[C@H](O)C3=C(C)[C@@H](OC(=O)[C@H](O)[C@@H](NC(=O)OC(C)(C)C)c4ccccc4)C[C@@](O)([C@@H](OC(=O)c4ccccc4)[C@H]21)C3(C)C", "note": "[docetaxel]", "values": [{"measurement": "vascular-damaging activity when administered at the MTD", "setting": "vasculature", "result": "no vascular-damaging activity"}]}]}
